Assay results taken from PMC11229374, “Unlocking the potential of protein-derived peptides to target G-quadruplex DNA: from recognition to anticancer activity” (Nucleic Acids Research, 2024).
Several values for one entry are separate records, joined by “and”; a condition that tells them apart may be missing. Equal entries are not always repeated.

Experiments:
ds12 duplex = assay: Microscale thermophoresis (MST) binding to ds12 duplex; details: 25°C, 20 nM FITC-labelled peptide, same buffer, n.d. = not determined due to undetectable binding
Procedure: (§1) MST experiments were conducted using a Monolith NT.115 instrument (NanoTemper Technologies, Munich, Germany) at 25°C with medium MST power settings. […] DNA samples were also diluted using the same buffer supplemented with 0.1% Tween. During MST experiments, the concentration of the labelled peptide was kept constant at 20 nM, while a serial dilution of the investigated DNA molecules (ranging from 10 or 20 μM) was prepared and mixed with the peptide solution in a 1:1 volume ratio. All the samples, with a final concentration of 5% DMSO, were loaded into standard capillaries (NanoTemper Technologies) for MST measurements. Data analysis was carried out using the MO.Affinity Analysis (v2.3) software provided with the instrument.

LWDLN1 G4 = assay: Microscale thermophoresis (MST) binding to LWDLN1 G4; details: 25°C, 20 nM FITC-labelled peptide, same buffer, n.d. = not determined due to undetectable binding
Procedure: as §1

HT2 G4 = assay: Microscale thermophoresis (MST) binding to HT2 G4; design: species or system human; details: 25°C, 20 nM FITC-labelled peptide, DNA serial dilution, 5 mM KH2PO4/K2HPO4 pH 7.0, 20 mM KCl, 0.1% Tween, 5% DMSO
Procedure: as §1

HT-FANA G4 = assay: Microscale thermophoresis (MST) binding to HT-FANA G4; design: species or system human; details: 25°C, 20 nM FITC-labelled peptide, DNA serial dilution, 5 mM KH2PO4/K2HPO4 pH 7.0, 20 mM KCl, 0.1% Tween, 5% DMSO
Procedure: as §1

HT1 G4 = assay: Microscale thermophoresis (MST) binding to HT1 G4; design: species or system human; details: 25°C, 20 nM FITC-labelled peptide, DNA serial dilution, 5 mM KH2PO4/K2HPO4 pH 7.0, 20 mM KCl, 0.1% Tween, 5% DMSO
Procedure: as §1

c-KIT2 G4 = assay: Isothermal titration calorimetry (ITC) with c-KIT2 G4; assay type: binding, human; details: ITC at 25°C, triplicate
Procedure: (§2) ITC experiments were conducted at 25°C using a nano-ITC Low Volume calorimeter (TA instruments, Lindon, UT, USA). DNA and peptide solutions were prepared using the same batch of buffer (5 mM KH2PO4/K2HPO4 buffer containing 20 mM KCl, pH 7.0) to prevent differences in buffer composition and pH. Each titration consisted of 25 injections of a 2 μl peptide solution (280–400 μM) sequentially injected using a computer-controlled 50 μl syringe, into the calorimetric vessel (190 μl) containing the oligonucleotide (16–20 μM). A spacing of 300 s between each injection was applied to allow the system to reach the equilibrium. The heat generated by peptide dilution was assessed in a control experiment by injecting the peptide solution into the buffer (Supplementary Figure S30). All measurements were performed in triplicate. Subsequently, the interaction heat for each injection was calculated considering the correction for the heat of peptide dilution. The corrected heat values were plotted as a function of the molar ratio to provide binding isotherms. The isotherms were fitted with a multiple-sites binding model using the NanoAnalyze software (TA instruments) provided with the instrument. This analysis provided the equilibrium binding constant (Ka), binding enthalpy (ΔH°), and stoichiometry of interaction (n). The equilibrium dissociation constant (Kd), Gibbs free-energy change and entropy change were determined using the following relationships: Kd = 1/Ka, ΔG° = -RT ln Ka (R = 8.314 J mol^−1 K^−1, T = 298.15 K), and TΔS° = ΔH° – ΔG°.

HRAS1 G4 = assay: Microscale thermophoresis (MST) binding to HRAS1 G4; design: species or system human; details: 25°C, 20 nM FITC-labelled peptide, same buffer, n.d. = not determined due to undetectable binding
Procedure: as §1

VEGFR-17T G4 = assay: Microscale thermophoresis (MST) binding to VEGFR-17T G4; design: species or system human; details: 25°C, 20 nM FITC-labelled peptide, same buffer, n.d. = not determined due to undetectable binding
Procedure: as §1

U2OS cells = assay: Viability assay (crystal violet), U2OS; assay type: cell-based; details: 72 h treatment, unconjugated peptides
Procedure: U2OS, HCT116 and MDA-MB-231 cells were purchased from the ATCC and grown in Dulbecco modified Eagle's medium (DMEM; EuroClone, Milan, Italy; ECM0728L) supplemented with 10% Fetal Bovine Serum (FBS, ThermoFisher Scientific/Gibco, Waltham, MA, USA; 10270-106), 2 mM L-glutamine and antibiotics in a humidified incubator at 37°C with 5% CO2 and atmospheric O2 concentration. Cell lines were authenticated and tested to be mycoplasma-free.
U2OS, HCT116, and MDA-MB-231 cells were seeded in 24-well plates at a density of 1 × 10^4, 20 × 10^3 and 12 × 10^3 for each well, respectively. After 24 h, cells were treated with the indicated peptides and incubated at 37°C for additional 72 h. Upon treatment completion, cell medium was removed, the wells were washed twice in phosphate-buffered saline (PBS) and fixed with 4% formaldehyde for 15 min at room temperature (RT). After washing, 500 μl of crystal violet staining solution (Sigma-Aldrich, St. Louis, MO, USA) was added to each well and incubated for 30 min at RT. Finally, the plates were rinsed twice with water, air-dried and cell pellets were dissolved in 400 μl of a 10% aqueous solution of acetic acid. In total, 200 μl of each sample was transferred to a 96-well plate, and the optical density was measured at 570 nm (OD570) with an ELISA reader (Thermo Scientific, Waltham, MA, USA). The average absorbance in each condition was used to calculate the viability expressed as a percentage of treated vs untreated conditions (CTR).

c-KIT1 G4 = assay: Microscale thermophoresis (MST) binding to c-KIT1 G4; design: species or system human; details: 25°C, 20 nM FITC-labelled peptide, DNA serial dilution, 5 mM KH2PO4/K2HPO4 pH 7.0, 20 mM KCl, 0.1% Tween, 5% DMSO
Procedure: as §1

HER2 G4 = assay: Isothermal titration calorimetry (ITC) with HER2 G4; assay type: binding, human; details: ITC at 25°C, triplicate
Procedure: as §2, with “The isotherms were fitted with a multiple-sites binding model using the NanoAnalyze software (TA instruments) provided with the instrument. This analysis provided the equilibrium binding constant (Ka), binding enthalpy (ΔH°), and stoichiometry of interaction (n).” left out

BCL-2 G4 = assay: Microscale thermophoresis (MST) binding to BCL-2 G4; design: species or system human; details: 25°C, 20 nM FITC-labelled peptide, DNA serial dilution, 5 mM KH2PO4/K2HPO4 pH 7.0, 20 mM KCl, 0.1% Tween, 5% DMSO
Procedure: as §1

Substance: Ac-NHTGNSIRHRFRVYLSKRL-NH2 [Myb^397–415]
- Kd for binding to ds12 duplex (ds12 duplex): negligible
- Kd for binding to LWDLN1 G4 (LWDLN1 G4): negligible binding
- Kd (HT2 G4): 1180 nM
- Kd (HT-FANA G4): 140 nM
- Kd (HT1 G4): 900 nM
- Ka (c-KIT2 G4; c-KIT2 G4 16–20 μM, peptide 280–400 μM, 5 mM KH2PO4/K2HPO4, 20 mM KCl, pH 7.0): 5.0 × 10^6 M^−1 and 5.0 (±0.3) ×10^6 M^−1
- Kd (c-KIT2 G4; c-KIT2 G4, Kd = 1/Ka): 200 nM
- Kd for binding to HRAS1 G4 (HRAS1 G4): negligible binding
- Kd for binding to VEGFR-17T G4 (VEGFR-17T G4): negligible binding
- Impact on cancer cell viability, peptides in native form (U2OS cells): unable to significantly impact cancer cells viability
- Kd (c-KIT1 G4): 340 nM
- Ka (HER2 G4; HER2 G4 16–20 μM, peptide 280–400 μM, 5 mM KH2PO4/K2HPO4, 20 mM KCl, pH 7.0): 1.0 × 10^7 M^−1 and 1.0 (±0.1) ×10^7 M^−1
- Kd (HER2 G4; HER2 G4, Kd = 1/Ka): 100 nM
- Kd (BCL-2 G4): 280 nM
